Results taken from patent publication US9212201B2, “Antifungal and antiparasitic polyene macrolides” (priority 2010, dated 2015).
≈ marks a conversion by molar mass, not a printed value. Where two headings read alike, the source gives them in different places.

How the values were obtained:
Water solubility = assay type: physicochemical; settings: in words
C. parapsilosis = assay: In vitro antifungal susceptibility CLSI M27-A2 (MIC, MFC); assay type: cell-based; settings: C. parapsilosis (10)
C. tropicalis = assay: as above; assay type: cell-based; settings: C. tropicalis (10)
C. lusitaniae = assay: as above; assay type: cell-based; settings: C. lusitaniae (10)
C. krusei = assay: as above; assay type: cell-based; settings: C. krusei (10)
C. dubliniensis = assay: In vitro antifungal susceptibility CLSI M27-A2 (MIC); assay type: cell-based; settings: C. dubliniensis (5)
Method: (§1) In addition, MFC ([…]) was done for each species. The geometric mean (GM) was calculated for each isolate using all three results. All testing was performed in triplicate to verify the reproducibility of the data.
Eighty-three Candida strains were evaluated. This included 12 different Candida species, which are the species that are most commonly involved in the majority of candidal infections in humans. The species include ten isolates of C. albicans, C. glabrata, C. parapsilosis, C. tropicalis, C. krusei, C. lusitaniae, and C. kefyr, along with five isolates of C. dubliniensis, and two isolates each of C. guilliermondii and C. rugosa. In addition, there was also one isolate each of C. sake, C. lipolytica, C. sphaerica and C. norvegica.

[1] = tested on: Other Candida species (C. lipolytica, C. sake, C. sphaerica, C. norvegica); assay: In vitro antifungal susceptibility CLSI M27-A2 (MIC, MFC); assay type: cell-based; settings: Other Candida spp. (4)
Acremonium spp. = assay: In vitro antifungal susceptibility CLSI M38-A (MIC); assay type: cell-based; settings: 5 isolates
Method: as §1
(§2) Several of the more common molds were also tested and evaluated including five strains of Alternaria, Cladosporium, Scopulariopsis, Acremonium, and Paecilomyces. Also evaluated were some of the more uncommon fungi such as Exophilia jeanselmei (3), Emmonsia parvum (Chrysporium parvum) (2) and Epioccum spp. (2). Conventional ATCC strains of different Candida and Aspergillus species were used as controls.

Alternaria spp. = assay: as above; assay type: cell-based; settings: 5 isolates
Method: as §1, §2

Cladosporium spp. = assay: as above; assay type: cell-based; settings: 5 isolates
Method: as §1, §2

[2] = tested on: Emmonsia parvum (Chrysporium parvum); assay: as above; assay type: cell-based; settings: 2 isolates
Method: as §1, §2

Epioccum spp. = assay: as above; assay type: cell-based; settings: 2 isolates
Method: as §1, §2

Paecilomyces spp. = assay: as above; assay type: cell-based; settings: 5 isolates
Method: as §1, §2

Scopulariopsis spp. = assay: as above; assay type: cell-based; settings: 5 isolates
Method: as §1, §2

E. jeanselmei = assay: as above; assay type: cell-based, Exophilia jeanselmei; settings: 3 isolates
Method: as §1, §2

Coccidioides sp = assay type: cell-based
Blastomyces dermatitidis = assay: Broth macrodilution MIC/MFC against endemic fungal pathogens; assay type: cell-based; settings: for MFC: >96% kill of the inoculum
[3] = tested on: 14 clinical isolates: Coccidioides, Blastomyces, Histoplasma capsulatum, Paracoccidioides; assay type: cell-based; settings: of 14 isolates
[4] = background statement; cited from earlier work
[5] = tested on: L. donovani intracellular amastigotes
[6] = human, in vivo; cited from earlier work
[7] = 28-day toxicology in rats (clinical chemistry, NOAEL)
[8] = Blastomyces dermatitidis isolate 1
[9] = Blastomyces dermatitidis isolate 2
[10] = rat sera, amphotericin B 0.5 mg, intravenously three days a week
[11] = rat sera, amphotericin B 1.0 mg, intravenously three days a week
[12] = rat sera, amphotericin B 1.5 mg, intravenously three days a week

## C[C@@H]1[C@H](O)[C@@H](C)/C=C/C=C/C=C/C=C/C=C/C=C/C=C/[C@H](O[C@@H]2O[C@H](C)[C@@H](O)[C@H](N)[C@@H]2O)C[C@@H]2O[C@](O)(C[C@@H](O)C[C@@H](O)[C@H](O)CC[C@@H](O)C[C@@H](O)CC(=O)O[C@H]1C)C[C@H](O)[C@H]2C(=O)O [Amphotericin B, amphotericin B]
Water solubility
  Water solubility: insoluble
C. parapsilosis
  GM (geometric mean MIC): 0.7 µg/mL
  MFC: 2 µg/mL (≈ 2.16 µM)
  MIC50: 0.5 µg/mL (≈ 0.541 µM)
  MIC90: 1 µg/mL (≈ 1.08 µM)
  MIC Range: 0.5 to 1.0 µg/mL
C. tropicalis
  GM (geometric mean MIC): 0.95 µg/mL
  MFC: 2 µg/mL (≈ 2.16 µM)
  MIC50: 1 µg/mL (≈ 1.08 µM)
  MIC90: 1 µg/mL (≈ 1.08 µM)
  MIC Range: 0.5 to 1.0 µg/mL
C. lusitaniae
  GM (geometric mean MIC): 0.575 µg/mL
  MFC: 0.5 µg/mL (≈ 0.541 µM)
  MIC50: 0.5 µg/mL (≈ 0.541 µM)
  MIC90: 1.0 µg/mL (≈ 1.08 µM)
  MIC Range: 0.25 to 1.0 µg/mL
C. krusei
  GM (geometric mean MIC): 1.29 µg/mL
  MFC: 2 µg/mL (≈ 2.16 µM)
  MIC50: 1 µg/mL (≈ 1.08 µM)
  MIC90: 2 µg/mL (≈ 2.16 µM)
  MIC Range: 0.5 to 2.0 µg/mL
C. krusei; listed as amphotericin B
  MIC50: 1.0 µg/mL (≈ 1.08 µM)
C. dubliniensis
  GM (geometric mean MIC): 0.4 µg/mL
  MIC50: 0.5 µg/mL (≈ 0.541 µM)
  MIC90: 1 µg/mL (≈ 1.08 µM)
  MIC Range: 0.125 to 1 µg/mL
[1]
  GM (geometric mean MIC): 0.95 µg/mL
  MFC: 2 µg/mL (≈ 2.16 µM)
  MIC50: 1 µg/mL (≈ 1.08 µM)
  MIC Range: 0.5 to 1.0 µg/mL
Acremonium spp.
  GM: 8 µg/mL
  MIC50: 8 µg/mL (≈ 8.66 µM)
  MIC Range: 8 µg/mL (≈ 8.66 µM)
Alternaria spp.
  GM: 0.25 µg/mL
  MIC50: 0.25 µg/mL (≈ 0.271 µM)
  MIC Range: 0.25 to 0.5 µg/mL
Cladosporium spp.
  GM: 0.7 µg/mL
  MIC50: 0.25 µg/mL (≈ 0.271 µM)
  MIC Range: 0.25 to 0.5 µg/mL
[2]
  GM: 0.25 µg/mL
  MIC50: 0.25 µg/mL (≈ 0.271 µM)
  MIC Range: 0.25 µg/mL (≈ 0.271 µM)
Epioccum spp.
  GM: 1 µg/mL
  MIC50: 1 µg/mL (≈ 1.08 µM)
  MIC Range: 1 µg/mL (≈ 1.08 µM)
Paecilomyces spp.
  GM: 1.4 µg/mL
  MIC50: 1 µg/mL (≈ 1.08 µM)
  MIC Range: 0.5 to 2 µg/mL
Scopulariopsis spp.
  GM: 0.95 µg/mL
  MIC50: 1 µg/mL (≈ 1.08 µM)
  MIC Range: 0.5 to 1 µg/mL
E. jeanselmei
  GM: 4.67 µg/mL
  MIC50: 4 µg/mL (≈ 4.33 µM)
  MIC Range: 2 to 8 µg/mL
Coccidioides sp; 2 C isolates
  MFC higher than corifungin: ≥ 4 fold
Coccidioides sp; 3 of the C isolates
  MFC: ≥ 8 µg/mL
  MIC: 4 µg/mL (≈ 4.33 µM)
Coccidioides sp; Coccidioides sp isolate 1
  MIC: 2 µg/mL (≈ 2.16 µM)
Coccidioides sp; Coccidioides sp isolate 1, >96% kill of the inoculum
  MFC: 8 µg/mL (≈ 8.66 µM)
Coccidioides sp; Coccidioides sp isolate 2
  MIC: 4 µg/mL (≈ 4.33 µM)
Coccidioides sp; Coccidioides sp isolate 2, >96% kill of the inoculum
  MFC: 8 µg/mL (≈ 8.66 µM)
Coccidioides sp; Coccidioides sp isolate 3
  MIC: 1 µg/mL (≈ 1.08 µM)
Coccidioides sp; Coccidioides sp isolate 3, >96% kill of the inoculum
  MFC: > 8 µg/mL
Coccidioides sp; Coccidioides sp isolate 4
  MIC: 4/4 mcg/mL
Coccidioides sp; Coccidioides sp isolate 4, >96% kill of the inoculum
  MFC: 4/4 mcg/mL
Coccidioides sp; Coccidioides sp isolate 5
  MIC: 4/4 mcg/mL
Coccidioides sp; Coccidioides sp isolate 5, >96% kill of the inoculum
  MFC: 4/4 mcg/mL
Blastomyces dermatitidis; [8]
  MIC: 2/2 mcg/mL
  MFC: 2/2 mcg/mL
Blastomyces dermatitidis; [9]
  MIC: 1/1 mcg/mL
  MFC: 1/1 mcg/mL
[3]
  cases in which MFCs equaled MICs: 11/14
[4]
  Water solubility: insoluble in water
[5]
  IC50: 50 nM
[6]
  patients with nephrotoxicity: ≤ 80%
[7]; [10]
  ALB (Albumin): 3.2
  ALK (Alkaline Phosphatase): 74
  ALT (Alanine Aminotransferase): 37
  BUN (Blood Urea Nitrogen): 15
  Creat (Creatinine): 0.6
  GLOB (Globulin): 2.6
  Na (Sodium): 140
[7]; [11]
  ALB (Albumin): 3.2
  ALK (Alkaline Phosphatase): 61
  ALT (Alanine Aminotransferase): 37
  BUN (Blood Urea Nitrogen): 16
  Creat (Creatinine): 0.6
  GLOB (Globulin): 2.7
  Na (Sodium): 140
  TP (Total Protein): 6.0
[7]; [12]
  ALB (Albumin): 3.4
  ALK (Alkaline Phosphatase): 69
  ALT (Alanine Aminotransferase): 36
  BUN (Blood Urea Nitrogen): 17
  Creat (Creatinine): 0.6
  GLOB (Globulin): 2.4
  Na (Sodium): 132
[7]; rats, intravenously 1.5 mg/kg three times a week over 28 days
  toxicity: No toxicity was observed
